Data taken from US11999727B2 (Tango Therapeutics, Inc., priority 2020, dated 2024).

Tests used:
[1] = test system: HAP1 MTAP-deleted cell line; assay: Viability assay, MTAP-deleted cell line; format: cell-based; conditions: Homo sapiens, read-out: HAP1 MTAP deleted viability
Source text: Table 1 additionally indicates IC50 values in a viability assay for the MTAP-deleted cell line (column 10), indicating the effect of treatment with compound on cell survival.

PRMT5 [2] = biological target: T1, PRMT5 (Homo sapiens, UniProt O14744); assay: PRMT5 biochemical IC50 assay with SAM as cofactor; conditions: PRMT5, SAM as cofactor; read-out: SAM IC50
T1 construct: purchased Viva (custom protein)

PRMT5 [3] = biological target: T1, PRMT5; assay: PRMT5 biochemical IC50 assay with MTA as cofactor; conditions: PRMT5, MTA as cofactor; read-out: MTA IC50
PRMT5 [4] = biological target: T1, PRMT5; assay: PRMT5 biochemical IC50 assay with no cofactor; conditions: PRMT5, no cofactor
Source text: Table 1 indicates IC50 values (μM) against PRMT5 for exemplary compounds in the presence of SAM as cofactor, with no cofactor, and with MTA as cofactor, respectively (columns 4-6). […] Ki values can be calculated from the IC50 values as described in the Examples section. As detailed in the Examples section, for the assay performed in the presence of SAM, IC50=Ki×1.5 (Ki=IC50/1.5).

[5] = test system: HAP1 MTAP-intact cell line; assay: SDMA in-cell western assay, HAP1 MTAP-intact; format: cell-based; conditions: Homo sapiens, HAP1, SDMA in-cell western, HAP1 MTAP-intact; read-out: MTAP HAP1 intact IC50
In short: (§1)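 Readout: in-cell western detection of SDMA. Cells: HAP1 expressing endogenous MTAP and an MTAP-null HAP1 counterpart. Output: IC50.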

[6] = test system: HAP1 MTAP-deleted cell line; assay: SDMA in-cell western assay, HAP1 MTAP-deleted; format: cell-based; conditions: for IC50: Homo sapiens, HAP1, SDMA in-cell western, HAP1 MTAP-deleted; for MTAP intact/deleted ratio: SDMA in-cell western
In short: as §1

[7] = HAP1, viability, HAP1 MTAP-deleted cell line
[8] = read-out: No Cofactor/ rel IC50
[9] = read-out: HAP 1 MTAP deleted IC50
[10] = IC50 ratio HAP1 MTAP-intact / HAP1 MTAP-deleted
[11] = HAP1, viability assay, MTAP-deleted cell line
[12] = HAP1, viability IC50, MTAP-deleted cell line
[13] = read-out: HAP1 MTAP deleted IC50
[14] = IC50 ratio HAP1 MTAP-intact vs HAP1 MTAP-deleted

T1 sequence (O14744 whole entry): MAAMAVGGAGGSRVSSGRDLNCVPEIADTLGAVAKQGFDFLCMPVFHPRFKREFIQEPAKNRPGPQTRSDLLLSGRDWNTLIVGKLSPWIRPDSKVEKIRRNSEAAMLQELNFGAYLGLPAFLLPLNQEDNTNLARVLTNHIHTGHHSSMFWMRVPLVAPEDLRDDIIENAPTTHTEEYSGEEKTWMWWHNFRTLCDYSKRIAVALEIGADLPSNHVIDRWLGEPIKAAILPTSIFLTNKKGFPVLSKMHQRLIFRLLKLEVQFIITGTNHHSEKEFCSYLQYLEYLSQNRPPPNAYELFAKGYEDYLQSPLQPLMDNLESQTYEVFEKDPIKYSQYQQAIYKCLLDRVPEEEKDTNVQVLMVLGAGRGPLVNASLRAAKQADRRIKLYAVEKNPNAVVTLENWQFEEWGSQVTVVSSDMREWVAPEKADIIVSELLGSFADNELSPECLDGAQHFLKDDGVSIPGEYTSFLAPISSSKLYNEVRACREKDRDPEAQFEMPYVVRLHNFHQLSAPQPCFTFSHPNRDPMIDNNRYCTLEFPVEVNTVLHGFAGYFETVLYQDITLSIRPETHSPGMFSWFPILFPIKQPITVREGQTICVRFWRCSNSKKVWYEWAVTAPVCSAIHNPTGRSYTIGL
T1 sequence (Q9BQA1 whole entry partner): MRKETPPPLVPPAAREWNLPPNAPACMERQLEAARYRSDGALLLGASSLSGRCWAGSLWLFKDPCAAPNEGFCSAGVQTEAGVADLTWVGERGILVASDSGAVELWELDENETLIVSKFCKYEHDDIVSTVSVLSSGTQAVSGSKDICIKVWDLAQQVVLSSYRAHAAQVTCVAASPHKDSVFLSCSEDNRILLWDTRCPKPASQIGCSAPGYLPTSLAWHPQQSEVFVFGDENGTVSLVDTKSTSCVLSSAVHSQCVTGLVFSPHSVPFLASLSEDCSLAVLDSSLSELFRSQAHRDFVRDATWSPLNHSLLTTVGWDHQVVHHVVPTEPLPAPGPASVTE

SMILES | IC50 (PRMT5 [2]) [nM] | IC50 (PRMT5 [3]) [nM] | IC50 (PRMT5 [4]; [8]) [nM] | IC50 [5] [nM] | IC50 [6, 9] [nM] | IC50 (PRMT5 [4]; read-out: No Cofactor/rel IC50) [nM] | IC50 [6, 13] [nM] | IC50 [1, 7] [nM] | MTAP intact/deleted ratio [6, 10] | IC50 [1, 11] [nM] | IC50 [1, 12] [nM] | MTAP intact/deleted ratio [6, 14]
COc1cc(NC(=O)C(=O)N2C[C@@H](C)CC[C@@H]2c2ccc(F)cc2)cnc1N [Compound 979, N-(6-amino-5-methoxy-3-pyridyl)-2-[(2R,5S)-2-(4-fluorophenyl)-5-methyl-1-piperidyl]-2-oxo-acetamide] | 50 to 500 | < 50 | – | > 1000 | 100 to 1000 | 50 to 500 | – | – | A (an IC50 ratio greater than or equal to 10 fold) | 1000 to 10000 | – | –
Cc1cc(NC(=O)C(=O)N2CC[C@@H](C)C[C@H]2c2ccccc2)cnc1N (racemic) [Compound 640, N-(6-amino-5-methyl-3-pyridyl)-2-[(2R,4S)-4-methyl-2-phenyl-1-piperidyl]-2-oxo-acetamide] | 50 to 500 | 50 to 500 | – | > 1000 | 100 to 1000 | 50 to 500 | – | – | A (an IC50 ratio greater than or equal to 10 fold) | – | 1000 to 10000 | –
CCc1cc(NC(=O)C(=O)N2C[C@@H](C)CC[C@@H]2c2cccc(OC[C@H]3CCN(C)C3)c2)cnc1N [Compound 1179, N-(6-amino-5-ethylpyridin-3-yl)-2-((2R,5S)-5-methyl-2-(3-(((S)-1-methylpyrrolidin-3-yl)methoxy)phenyl)piperidin-1-yl)-2-oxoacetamide] | < 50 | < 50 | – | < 100 | – | < 50 | < 100 | – | – | < 1000 | – | A (an IC50 ratio greater than or equal to 10 fold)
Cc1cc(NC(=O)C(=O)N2C[C@H](C(N)=O)CC[C@H]2c2ccccc2)cnc1N (racemic) [Compound 315] | 50 to 500 | 50 to 500 | – | > 1000 | – | 50 to 500 | 100 to 1000 | – | A (an IC50 ratio greater than or equal to 10 fold) | > 10000 | – | –
Cc1ccc([C@@H]2CC[C@@H](C)CN2C(=O)C(=O)Nc2cnc(N)c(C)c2)cn1 (single isomer, unassigned) [Compound 687] | 50 to 500 | < 50 | – | 100 to 1000 | < 100 | < 50 | – | – | A (an IC50 ratio greater than or equal to 10 fold) | – | < 1000 | –
Cc1cc(NC(=O)C(=O)N2C[C@H](C)CC[C@H]2c2ccc(-c3ccn[nH]3)s2)cnc1N (racemic) [Compound 556, N-(6-amino-5-methyl-3-pyridyl)-2-[(2R,5S)-5-methyl-2-[5-(1H-pyrazol-5-yl)-2-thienyl]-1-piperidyl]-2-oxo-acetamide] | 50 to 500 | 50 to 500 | – | 100 to 1000 | < 100 | 50 to 500 | – | – | A (an IC50 ratio greater than or equal to 10 fold) | – | < 1000 | –
C[C@@H]1CC[C@@H](c2cccc(C3CCC3)c2)N(C(=O)C(=O)Nc2cncc(C(N)=O)c2)C1 (racemic) [Compound 261, rac-5-{2-[(2R,5S)-2-(3-Cyclobutylphenyl)-5-methylpiperidin-1-yl]-2-oxoacetamido}pyridine-3-carboxamide] | 50 to 500 | < 50 | – | > 1000 | – | 50 to 500 | < 100 | – | A (an IC50 ratio greater than or equal to 10 fold) | 1000 to 10000 | – | –
CCc1nc2cc([C@@H]3CC[C@@H](C)CN3C(=O)C(=O)Nc3cnc(N)c(C)c3)ccc2s1 (racemic) [Compound 1184, N-(6-amino-5-methylpyridin-3-yl)-2-(2-(2-ethylbenzo[d]thiazol-5-yl)-5-methylpiperidin-1-yl)-2-oxoacetamide] | 50 to 500 | 50 to 500 | – | 100 to 1000 | – | 50 to 500 | < 100 | – | – | < 1000 | – | A (an IC50 ratio greater than or equal to 10 fold)
COc1ncc(NC(=O)C(=O)N2C[C@H](C)CC[C@H]2c2cc3[nH]ncc3s2)cc1C(N)=O (single isomer, unassigned) [Compound 952, 2-methoxy-5-(2-(5-methyl-2-(1H-thieno[3,2-c]pyrazol-5-yl)piperidin-1-yl)-2-oxoacetamido)nicotinamide] | > 500 | > 500 | – | > 1000 | > 1000 | > 500 | – | – | B (an IC50 ratio greater than or equal to 3 fold but lower than 10 fold) | > 10000 | – | –
Cc1cc(NC(=O)C(=O)N2C[C@@H]3CC[C@@H](C3)[C@@H]2c2cccs2)cnc1N (single isomer, unassigned) [Compound 137] | 50 to 500 | < 50 | 50 to 500 | > 1000 | < 100 | – | – | – | A (an IC50 ratio greater than or equal to 10 fold) | > 10000 | – | –
C[C@H]1CC[C@H](c2cccc(C(F)(F)F)c2)N(C(=O)C(=O)Nc2cncc(C(N)=O)c2)C1 (single isomer, unassigned) [Compound 509] | 50 to 500 | < 50 | – | > 1000 | – | 50 to 500 | < 100 | – | A (an IC50 ratio greater than or equal to 10 fold) | 1000 to 10000 | – | –
Cc1cc(NC(=O)C(=O)N2C[C@H](C)CC[C@H]2c2ccc3[nH]nc(N)c3c2)cnc1C (single isomer, unassigned) [Compound 948] | 50 to 500 | < 50 | – | > 1000 | < 100 | 50 to 500 | – | – | A (an IC50 ratio greater than or equal to 10 fold) | < 1000 | – | –

The next lines start with results.

IC50 (PRMT5 [2]) [nM] | IC50 (PRMT5 [3]) [nM] | IC50 (PRMT5 [4]; [8]) [nM] | IC50 [5] [nM] | IC50 [6, 9] [nM] | IC50 (PRMT5 [4]; read-out: No Cofactor/rel IC50) [nM] | IC50 [6, 13] [nM] | SMILES | IC50 [1, 7] [nM] | MTAP intact/deleted ratio [6, 10] | IC50 [1, 11] [nM] | IC50 [1, 12] [nM] | MTAP intact/deleted ratio [6, 14]
50 to 500 | < 50 | < 50 | < 100 | < 100 | – | – | CCc1cc(NC(=O)C(=O)N2C[C@@H](C)CC[C@@H]2c2ccc3sc(C45CCN(CC4)C5)nc3c2)cnc1N [Compound 1298, 2-((2R,5S)-2-(2-(1-azabicyclo[2.2.1]heptan-4-yl)benzo[d]thiazol-5-yl)-5-methylpiperidin-1-yl)-N-(6-amino-5-ethylpyridin-3-yl)-2-oxoacetamide] | < 1000 | B (an IC50 ratio greater than or equal to 3 fold but lower than 10 fold) | – | – | –
50 to 500 | < 50 | < 50 | < 100 | < 100 | – | – | CCc1cc(NC(=O)C(=O)N2C[C@@H](C)CC[C@@H]2c2ccc(OCCN(C)C)c(Cl)c2)cnc1N (racemic) [Compound 1305, N-(6-Amino-5-ethyl-3-pyridyl)-2-oxo-2-[rac-(2R,5S)-2-[3-chloro-4-[2-(dimethylamino)ethoxy]phenyl]-5-methyl-1-piperidyl]acetamide] | < 1000 | A (an IC50 ratio greater than or equal to 10 fold) | – | – | –
50 to 500 | < 50 | < 50 | 100 to 1000 | < 100 | – | – | CCc1cc(NC(=O)C(=O)N2C[C@@H](C)CC[C@@H]2c2ccc3sc(CN(CC)C(C)C)nc3c2)cnc1N [Compound 1380, N-(6-amino-5-ethylpyridin-3-yl)-2-((2R,5S)-2-(2-((ethyl(isopropyl)amino)methyl)benzo[d]thiazol-5-yl)-5-methylpiperidin-1-yl)-2-oxoacetamide] | < 1000 | A (an IC50 ratio greater than or equal to 10 fold) | – | – | –
50 to 500 | < 50 | – | 100 to 1000 | – | < 50 | < 100 | CCc1cc(NC(=O)C(=O)N2C[C@@H](C)CC[C@@H]2c2ccc3cn(C)nc3c2)cnc1N [Compound 1199, N-(6-amino-5-ethyl-3-pyridyl)-2-[(5S)-5-methyl-2-(2-methylindazol-6-yl)-1-piperidyl]-2-oxo-acetamide] | – | – | < 1000 | – | A (an IC50 ratio greater than or equal to 10 fold)
50 to 500 | < 50 | < 50 | < 100 | < 100 | – | – | CCc1cc(NC(=O)C(=O)N2C[C@@H](C)CC[C@@H]2c2ccc3sc(C4CC(C)(C)N(C)C(C)(C)C4)nc3c2)cnc1N [Compound 1340, N-(6-amino-5-ethylpyridin-3-yl)-2-((2R,5)-5-methyl-2-(2-(1,2,2,6,6-pentamethylpiperidin-4-yl)benzo[d]thiazol-5-yl)piperidin-1-yl)-2-oxoacetamide] | < 1000 | A (an IC50 ratio greater than or equal to 10 fold) | – | – | –
